Several values for one entry are separate records, joined by “and”; a condition that tells them apart may be missing. Identical values can stand only once. Inconclusive results and toxic doses are left out. No stated cut-off is given here; in the data, active means T/C of 150% or more; inactive means T/C below 125%.
Test system: L1210 leukemia ip in BDF1 mice, survival T/C
Assay: NCI In Vivo Anticancer Drug Screen. Data for tumor model L1210 Leukemia (intraperitoneal) in B6D2F1 (BDF1) mice
Settings: endpoint: mean survival time, higher = longer survival
In short: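 Tumor cells were implanted, animals were treated, and survival was followed. The result divides the treated measurement by the vehicle-control measurement.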

[1] = dose: 100.0 mg/kg/injection, schedule: Q01DX001 (ip), vehicle: other
[2] = dose: 100.0 mg/kg/injection, schedule: Q01DX009 (ip), vehicle: saline with Tween-80
[3] = dose: 200.0 mg/kg/injection, schedule: Q01DX009 (ip), vehicle: saline with Tween-80
[4] = dose: 400.0 mg/kg/injection, schedule: Q01DX009 (ip), vehicle: saline with Tween-80
[5] = dose: 100.0 mg/kg/injection, schedule: Q04DX003 (ip), vehicle: saline with Tween-80
[6] = dose: 200.0 mg/kg/injection, schedule: Q04DX003 (ip), vehicle: saline with Tween-80
[7] = dose: 400.0 mg/kg/injection, schedule: Q04DX003 (ip), vehicle: saline with Tween-80
[8] = dose: 100.0 mg/kg/injection, schedule: Q04DX002 (ip), vehicle: saline with Tween-80
[9] = dose: 200.0 mg/kg/injection, schedule: Q04DX002 (ip), vehicle: saline with Tween-80
[10] = dose: 400.0 mg/kg/injection, schedule: Q04DX002 (ip), vehicle: saline with Tween-80
[11] = dose: 100.0 mg/kg/injection, schedule: Q01DX009 (ip), vehicle: Klucel (hydroxypropylcellulose) (HPC)
[12] = dose: 200.0 mg/kg/injection, schedule: Q01DX009 (ip), vehicle: Klucel (hydroxypropylcellulose) (HPC)
[13] = dose: 50.0 mg/kg/injection, schedule: Q01DX009 (ip), vehicle: saline with Tween-80
[14] = dose: 50.0 mg/kg/injection, schedule: Q04DX003 (ip), vehicle: saline with Tween-80
[15] = dose: 400.0 mg/kg/injection, schedule: Q01DX009 (ip), vehicle: Klucel (hydroxypropylcellulose) (HPC)
[16] = dose: 100.0 mg/kg/injection, schedule: Q04DX003 (ip), vehicle: Klucel (hydroxypropylcellulose) (HPC)
[17] = dose: 200.0 mg/kg/injection, schedule: Q04DX003 (ip), vehicle: Klucel (hydroxypropylcellulose) (HPC)
[18] = dose: 100.0 mg/kg/injection, schedule: Q01DX001 (ip), vehicle: Klucel (hydroxypropylcellulose) (HPC)
[19] = dose: 200.0 mg/kg/injection, schedule: Q01DX001 (ip), vehicle: Klucel (hydroxypropylcellulose) (HPC)
[20] = dose: 100.0 mg/kg/injection, schedule: Q04DX003 (ip), vehicle: saline
[21] = dose: 200.0 mg/kg/injection, schedule: Q04DX003 (ip), vehicle: saline
[22] = dose: 400.0 mg/kg/injection, schedule: Q04DX003 (ip), vehicle: Klucel (hydroxypropylcellulose) (HPC)

Measured: T/C

O=c1ccc2ccccc2o1
inactive: dose: 45.0 mg/kg/injection, schedule: Q01DX Z (ip), vehicle: carboxymethylcellulose (CMC) 114 % of control | dose: 65.0 mg/kg/injection, schedule: Q01DX Z (ip), vehicle: carboxymethylcellulose (CMC) 94 % of control | dose: 95.0 mg/kg/injection, schedule: Q01DX Z (ip), vehicle: carboxymethylcellulose (CMC) 102 % of control | [1] 100 % of control | dose: 110.0 mg/kg/injection, schedule: Q01DX Z (ip), vehicle: carboxymethylcellulose (CMC) 102 % of control and 105 % of control | dose: 165.0 mg/kg/injection, schedule: Q01DX Z (ip), vehicle: carboxymethylcellulose (CMC) 97 % of control | dose: 200.0 mg/kg/injection, schedule: Q01DX001 (ip), vehicle: other 105 % of control

COc1ccc(C(O)c2ccccc2C(=O)Nc2ccccc2)cc1 (stereo not given)
inactive: [2] 98 % of control | [3] 88 % of control | [4] 95 % of control

C/C=C1\CCOC1=O
inactive: dose: 100.0 mg/kg/injection, schedule: Q04DX002 (ip), vehicle: saline 94 % of control | dose: 200.0 mg/kg/injection, schedule: Q04DX002 (ip), vehicle: saline 91 % of control | dose: 400.0 mg/kg/injection, schedule: Q04DX002 (ip), vehicle: saline 105 % of control

CCCCC(C)O[Si](C)C1(C)CCCCC1 (stereo not given)
inactive: [5] 94 % of control | [6] 95 % of control | [7] 106 % of control

CCOC(=O)c1ccc(C(=O)OCC)nc1
inactive: dose: 12.5 mg/kg/injection, schedule: Q01DX009 (ip), vehicle: saline 109 % of control | dose: 25.0 mg/kg/injection, schedule: Q01DX009 (ip), vehicle: saline 94 % of control | dose: 50.0 mg/kg/injection, schedule: Q01DX009 (ip), vehicle: saline 101 % of control | [2] 87 % of control | [5] 101 % of control | [6] 106 % of control | [7] 103 % of control

COc1ccc(/C=C/C2=CC(=O)CC(c3ccc(OC)c(OC)c3)C2)cc1OC (stereo not given)
inactive: [8] 102 % of control | [9] 102 % of control | [10] 105 % of control

O=C(NC(=S)Nc1cccc(C(F)(F)F)c1)c1cc([N+](=O)[O-])cc([N+](=O)[O-])c1
inactive: dose: 100.0 mg/kg/injection, schedule: Q01DX001 (ip), vehicle: saline with Tween-80 93 % of control | [2] 89 % of control | [8] 101 % of control | dose: 200.0 mg/kg/injection, schedule: Q01DX001 (ip), vehicle: saline with Tween-80 98 % of control | [3] 87 % of control and 89 % of control | [9] 94 % of control | [10] 97 % of control

CCN(CC)CCNC(=O)Nc1ccc(OC)cc1
inactive: [11] 96 % of control | [12] 103 % of control

NC(=O)c1ncn[nH]1
inactive: [13] 113 % of control | [14] 104 % of control | [2] 108 % of control | [5] 110 % of control | [3] 120 % of control | [6] 106 % of control

CC(=O)Nc1cccc(OC(=O)Nc2ccccc2F)c1
inactive: [11] 91 % of control | [12] 101 % of control | [15] 112 % of control

O=[N+]([O-])c1ccc(CN=NCc2ccc(Cl)cc2Cl)c(Cl)c1
inactive: [13] 90 % of control | [2] 100 % of control | [3] 100 % of control | [4] 95 % of control

C=C1CC[N+]2(CC(=O)c3ccc(Br)cc3)CCCC12 (stereo not given)
inactive: dose: 12.5 mg/kg/injection, schedule: Q01DX001 (ip), vehicle: saline 92 % of control | dose: 25.0 mg/kg/injection, schedule: Q01DX001 (ip), vehicle: saline 92 % of control | dose: 50.0 mg/kg/injection, schedule: Q01DX001 (ip), vehicle: saline 101 % of control

CN(C)CCCNC(=S)C(=S)NCCCN(C)C
inactive: dose: 50.0 mg/kg/injection, schedule: Q01DX009 (ip), vehicle: Klucel (hydroxypropylcellulose) (HPC) 105 % of control | [11] 105 % of control | [16] 94 % of control | [12] 96 % of control | [17] 94 % of control

O=C(/C=C/c1c(Cl)cccc1Cl)c1ccc(Cl)cc1
inactive: [2] 98 % of control | [5] 90 % of control | [3] 95 % of control | [6] 90 % of control | [4] 90 % of control | [7] 91 % of control

Cc1ccc(S(=O)(=O)CN2CCC(=O)c3ccccc32)cc1
inactive: dose: 75.0 mg/kg/injection, schedule: Q01DX001 (ip), vehicle: saline 104 % of control | dose: 150.0 mg/kg/injection, schedule: Q01DX001 (ip), vehicle: saline 101 % of control | dose: 300.0 mg/kg/injection, schedule: Q01DX001 (ip), vehicle: saline 93 % of control

Cc1c[nH]c2nccnc12
inactive: dose: 100.0 mg/kg/injection, schedule: Q01DX009 (ip), vehicle: water 102 % of control | dose: 100.0 mg/kg/injection, schedule: Q04DX003 (ip), vehicle: water 108 % of control | dose: 200.0 mg/kg/injection, schedule: Q01DX009 (ip), vehicle: water 96 % of control | dose: 200.0 mg/kg/injection, schedule: Q04DX003 (ip), vehicle: water 98 % of control | dose: 400.0 mg/kg/injection, schedule: Q01DX009 (ip), vehicle: water 105 % of control | dose: 400.0 mg/kg/injection, schedule: Q04DX003 (ip), vehicle: water 101 % of control

N=C(N)SCc1cccc(Cl)c1
inactive: dose: 25.0 mg/kg/injection, schedule: Q04DX002 (ip), vehicle: saline with Tween-80 100 % of control | dose: 50.0 mg/kg/injection, schedule: Q04DX002 (ip), vehicle: saline with Tween-80 93 % of control | [8] 90 % of control

CCOC(=O)c1[nH]c(=O)nc(N)c1Oc1ccccc1
inactive: dose: 50.0 mg/kg/injection, schedule: Q01DX001 (ip), vehicle: Klucel (hydroxypropylcellulose) (HPC) 98 % of control | [18] 92 % of control | [19] 93 % of control

CCN(CC)CCOC(=O)Nc1ccc(Cl)cc1
inactive: [11] 93 % of control | [20] 98 % of control | [12] 93 % of control | [21] 98 % of control | [15] 98 % of control

CCCCCCCCC(O)CCCC (stereo not given)
inactive: [11] 93 % of control | [16] 97 % of control | [12] 98 % of control | [17] 105 % of control | [15] 95 % of control | [22] 100 % of control

S=C(NCCS)Nc1ccccc1
inactive: [16] 98 % of control | [17] 105 % of control | [22] 99 % of control

O=C(NCc1ccccc1)c1ccc(Cl)cc1
inactive: [20] 97 % of control | [21] 97 % of control | dose: 400.0 mg/kg/injection, schedule: Q04DX003 (ip), vehicle: saline 95 % of control

O=C(O)CNC(=O)C(Br)Cc1ccccc1 (stereo not given)
inactive: [2] 96 % of control | [3] 89 % of control | [4] 89 % of control

Oc1ccccc1OB(Oc1ccccc1O)N(CCCl)CCCl
inactive: [1] 111 % of control

CCCCCC(C)n1c(C)cc(=O)n1C(C)CCCCC (stereo not given)
inactive: dose: 75.0 mg/kg/injection, schedule: Q01DX001 (ip), vehicle: other 92 % of control | dose: 150.0 mg/kg/injection, schedule: Q01DX001 (ip), vehicle: other 97 % of control

c1cc2c3c(c1)nc(CCc1nc4cccc5c4n1CCC5)n3CCC2
inactive: dose: 25.0 mg/kg/injection, schedule: Q04DX003 (ip), vehicle: saline with Tween-80 101 % of control | [14] 95 % of control | [5] 93 % of control and 87 % of control | [7] 87 % of control

S=C(NCc1ccco1)NCc1ccco1
inactive: dose: 155.0 mg/kg/injection, schedule: Q01DX Z (ip), vehicle: methylcellulose (MC) 92 % of control | dose: 233.0 mg/kg/injection, schedule: Q01DX Z (ip), vehicle: methylcellulose (MC) 100 % of control

CC(=O)OCC(OC(C)=O)C(OC(C)=O)C(C=O)OC(C)=O (stereo not given)
inactive: [18] 105 % of control | [2] 90 % of control | [5] 93 % of control | [19] 97 % of control | [3] 93 % of control | [6] 88 % of control | dose: 400.0 mg/kg/injection, schedule: Q01DX001 (ip), vehicle: Klucel (hydroxypropylcellulose) (HPC) 105 % of control | [4] 88 % of control | [7] 91 % of control

— PubChem BioAssay AID248 (DTP/NCI, 2004)
